Several values for one entry are separate records, joined by “and”; a condition that tells them apart may be missing. Identical values can stand only once. Like-named read-outs stand apart in the source and are kept apart here.
Experiment: Phase 1 single ascending dose (SAD) pharmacokinetics in healthy volunteers
Format: in vivo, human
Conditions: for Ka: estimated; for Vd / Tmax / Vd/F / AUC / Cmax / AUC(0-t): male, human, plasma, oral; for Vd: NCA estimate; for Vd/F: read-out: Vz/F
Procedure: Study design: A phase 1, randomized, double blind, placebo-controlled, single-center clinical study in 33 male healthy volunteers (HV) (19-54 years, 63.2-95.7 Kg) was conducted with leriglitazone HCl and divided in two parts: a single ascending dose (SAD) with three dose levels (30, 90 and 270 mg) in fasted conditions, followed with two dose levels (90 and 270 mg) in fed conditions; a multiple ascending dose (MAD) with a double-blind, parallel-design with two dose levels (135 and 270 mg) for 8 days and a separate cohort of subjects in an open-label parallel design with two dose levels (135 and 270 mg) including cerebrospinal fluid (CSF) collection on day 8. In the fasted conditions a fasting period of at least 4 hours was required before obtaining plasma samples. The food effect (FE) was assessed by comparing fasted with fed conditions (dosing after a high-fat breakfast per FDA definition with a calculated caloric content of 918 kcal). In the MAD part (fed) the medication was taken before a normal breakfast. Leriglitazone HCl was supplied by ChemConnection and an oral suspension of leriglitazone (20% w/v kleptose, 2% ethanol in 100 mM phosphate buffer pH=7.8) at 6 mg/ml was used in the study.
Blood, Urine and CSF sampling: In the SAD, blood samples were drawn at the following time points: pre-dose and 0.25, 0.5, 0.75, 1, 1.5, 2, 2.5, 3, 4, 5, 6, 8, 10, 12, 16, 24, 36, 48, 72, 96 and 120 hours post-dose. Urine was collected at pre-dose (within 12 hours prior to dosing) and over 0-6, 6-12, 12-24, 24-36, 36-48 hours post-dose collection intervals. In the MAD, blood samples were collected on day 1 at pre-dose and 0.25, 0.5, 0.75, 1, 1.5, 2, 2.5, 3, 4, 5, 6, 8, 10, 12, and 16 hours post-dose and at pre-dose and at 4 hours post-dose on day 2 to day 7, and on day 8 at pre-dose and 0.25, 0.5, 0.75, 1, 1.5, 2, 2.5, 3, 4, 5, 6, 8, 10, 12, 16, 24, 36, 48, 72, 96 and 120 hours post-dose. CSF were taken on day −1 and on day 8, at 4 hours post-dose.
Pharmacokinetic parameter calculation: PK parameters (Cmax, Tmax, t1/2, AUC0-t, CL/F, Vz/F, AUC0-t, RAUC, RCmax) were estimated using non-compartmental analysis (NCA) (Phoenix WinNonlin® Version 6.3).
Statistical analysis: Descriptive statistics for all relevant PK parameters: n, mean, minimum, median, maximum, geometric mean, and coefficient of variation (CV %); analysis of variance on Cmax and AUC to determine dose proportionality and food effect (FE).

## CC(O)c1ccc(CCOc2ccc(CC3SC(=O)NC3=O)cc2)nc1 (stereo not shown) [Leriglitazone, 5-[[4-[2-[5-(1-hydroxyethyl)pyridin-2-yl]ethoxy]phenyl]methyl]-1,3-thiazolidine-2,4-dione]
48-hour collection period
  dose excreted in urine as free analyte: < 0.4%
  dose excreted in urine as the analyte, mostly in a conjugated state: 6.5%
SAD 30 mg Fasted
  Ka: 6.35 (CV: 676%) 1/h
SAD 30 mg fasted, n = 6, geometric mean (CV %)
  CL/F: 0.679 (9.0) L/h
SAD 90 mg Fasted
  Ka: 4.43 (CV: 222%) 1/h
SAD 90 mg Fed
  Ka: 0.89 1/h and 0.89 (CV: 68%) 1/h
SAD 90 mg fasted, n = 6, geometric mean (CV %)
  CL/F: 0.746 (10.1) L/h
SAD 90 mg fed, n = 3, geometric mean (CV %)
  CL/F: 0.747 (6.7) L/h
SAD 270 mg Fasted
  Ka: 1.92 (CV: 75%) 1/h
SAD 270 mg Fed
  Ka: 0.49 (CV: 9%) 1/h
SAD 270 mg fasted, n = 5, geometric mean (CV %)
  CL/F: 0.731 (16.2) L/h
SAD 270 mg fed, n = 5, geometric mean (CV %)
  CL/F: 0.733 (17.8) L/h
SAD 30, 90 and 270 mg
  dose proportionality of AUC: AUC increased proportionally with the dose
SAD fed vs fasted, food lowered Cmax and prolonged Tmax
  food effect on overall exposure: overall exposure was not affected
From individual phase 1 plasma PK data
  leriglitazone converted to M3: up to 51%
30 mg, SAD 30 mg Fasted, per kg body weight, read-out: Vss
  Vd: 0.29 L/kg
30 mg, SAD 30 mg Fasted, read-out: Vss
  Vd: 23.1 L
30 mg, SAD 30 mg fasted, n = 6, Median, read-out: Tmax
  Tmax: 0.63 h
30 mg, SAD 30 mg fasted, n = 6, geometric mean (CV %)
  Vd/F: 23.2 L
30 mg, SAD 30 mg fasted, n = 6, geometric mean, read-out: AUC
  AUC: 44.2 µg·h/mL
30 mg, SAD 30 mg fasted, n = 6, plasma total, geometric mean (CV %), read-out: Cmax
  Cmax: 1700 ng/mL
30 mg, single dose 30 mg Fasted, read-out: AUC, Observed
  AUC: 44.2 µg·h/mL
30 mg, single dose 30 mg Fasted, read-out: Cmax, Observed
  Cmax: 1700 ng/mL
30 mg, single dose 30 mg Fasted, read-out: Tmax, Observed
  Tmax: 0.63 h
90 mg, SAD 90 mg Fasted, per kg body weight, read-out: Vss
  Vd: 0.31 L/kg
90 mg, SAD 90 mg Fasted, read-out: Vss
  Vd: 25.2 L
90 mg, SAD 90 mg Fed, per kg body weight, read-out: Vss
  Vd: 0.35 L/kg
90 mg, SAD 90 mg Fed, read-out: Vss
  Vd: 28.1 L
90 mg, SAD 90 mg fasted, n = 6, Median, read-out: Tmax
  Tmax: 0.88 h
90 mg, SAD 90 mg fasted, n = 6, geometric mean
  AUC(0-t): 117 µg·h/mL
90 mg, SAD 90 mg fasted, n = 6, geometric mean (CV %)
  Vd/F: 26.1 L
90 mg, SAD 90 mg fasted, n = 6, geometric mean, read-out: AUC
  AUC: 121 µg·h/mL
90 mg, SAD 90 mg fasted, n = 6, plasma total, geometric mean (CV %), read-out: Cmax
  Cmax: 4430 ng/mL
90 mg, SAD 90 mg fed, n = 3, Median, read-out: Tmax
  Tmax: 3 h
90 mg, SAD 90 mg fed, n = 3, geometric mean
  AUC(0-t): 116 µg·h/mL
90 mg, SAD 90 mg fed, n = 3, geometric mean (CV %)
  Vd/F: 27.8 L
90 mg, SAD 90 mg fed, n = 3, geometric mean, read-out: AUC
  AUC: 121 µg·h/mL
90 mg, SAD 90 mg fed, n = 3, plasma total, geometric mean (CV %), read-out: Cmax
  Cmax: 3170 ng/mL
90 mg, single dose 90 mg Fasted, read-out: AUC, Observed
  AUC: 121 µg·h/mL
90 mg, single dose 90 mg Fasted, read-out: Cmax, Observed
  Cmax: 4430 ng/mL
90 mg, single dose 90 mg Fasted, read-out: Tmax, Observed
  Tmax: 0.88 h
90 mg, single dose 90 mg Fed, read-out: AUC, Observed
  AUC: 121 µg·h/mL
90 mg, single dose 90 mg Fed, read-out: Cmax, Observed
  Cmax: 3170 ng/mL
90 mg, single dose 90 mg Fed, read-out: Tmax, Observed
  Tmax: 3 h
270 mg, SAD 270 mg Fasted, per kg body weight, read-out: Vss
  Vd: 0.27 L/kg
270 mg, SAD 270 mg Fasted, read-out: Vss
  Vd: 22.7 L
270 mg, SAD 270 mg Fed, per kg body weight, read-out: Vss
  Vd: 0.3 L/kg
270 mg, SAD 270 mg Fed, read-out: Vss
  Vd: 24.4 L
270 mg, SAD 270 mg fasted, n = 5, Median, read-out: Tmax
  Tmax: 1.5 h
270 mg, SAD 270 mg fasted, n = 5, geometric mean (CV %)
  Vd/F: 24 L
270 mg, SAD 270 mg fed, n = 5, Median, read-out: Tmax
  Tmax: 4 h
270 mg, SAD 270 mg fed, n = 5, geometric mean
  AUC(0-t): 357 µg·h/mL
270 mg, SAD 270 mg fed, n = 5, geometric mean (CV %)
  Vd/F: 24.9 L
270 mg, SAD 270 mg fed, n = 5, geometric mean, read-out: AUC
  AUC: 368 µg·h/mL
270 mg, SAD 270 mg fed, n = 5, plasma total, geometric mean (CV %), read-out: Cmax
  Cmax: 11500 ng/mL
270 mg, SAD Fasted doses 30, 90, 270 mg, read-out: Vss, Mean
  Vd: 0.29 L/kg
270 mg, SAD Fed doses 90, 270 mg, read-out: Vss, Mean
  Vd: 0.32 L/kg
270 mg, SAD fasting conditions, 30, 90 and 270 mg, read-out: Tmax, range
  Tmax: 0.25 to 2.5 h

Reference: patent US20260207570A1, “OPTIMIZED DOSING OF LERIGLITAZONE” (MINORYX THERAPEUTICS S.L., priority 2022, published 2026)
